Reference: US20120004244A1, “Bis Aromatic Compounds for Use as LTC4 Synthase Inhibitors” (BIOLIPOX AB, priority 2009, published 2012)

biological target: T1, Recombinant human LTC4 synthase (Homo sapiens, UniProt Q16873); assay: LTC4 synthase in vitro assay (LTA4 to LTC4, HTRF detection); format: biochemical; details: not given
T1 construct: made in house; host or cells: Pichia pastoris ('Piccia pastoralis' [sic])
T1 sequence (Q16873 1-150): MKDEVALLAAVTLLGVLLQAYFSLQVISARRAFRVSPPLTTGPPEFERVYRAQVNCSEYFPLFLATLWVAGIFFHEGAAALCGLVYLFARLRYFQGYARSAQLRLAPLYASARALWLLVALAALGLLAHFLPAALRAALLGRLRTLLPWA
Method: In the assay, LTC4 synthase catalyses the reaction where the substrate LTA4 is converted to LTC4. Recombinant human LTC4 synthase is expressed in Piccia pastoralis and the purified enzyme is dissolved in 25 mM tris-buffer pH 7.8 supplemented with 0.1 mM glutathione (GSH) and stored at −80° C. The assay is performed in phosphate buffered saline (PBS) pH 7.4 and 5 mM GSH in 384-well plates.
The following is added chronologically to each well:
1.48 μL LTC4 synthase in PBS with 5 mM GSH. The total protein concentration in this solution is 0.5 μg/mL. 2. 1 μL inhibitor in DMSO (final concentration 10 μM). 3. Incubation of the plate at room temperature for 10 min. 4. 1 μL LTA4 (final concentration 2.5 μM). 5. Incubation of the plate at room temperature for 5 min. 6. 10 μL of the incubation mixture is analysed using homogenous time resolved fluorescent (HTRF) detection.

Compound	IC50
O=C(c1ccc(Oc2ccc(Cl)c(Cl)c2)c(C(=O)O)c1)c1ccc(N(CC2CC2)c2ccc(Cl)cc2)cn1 [1:26, 5-{5-[(4-Chlorophenyl)(cyclopropylmethyl)amino]picolinoyl}-2-(3,4-dichlorophenoxy)benzoic acid]	72 nM
CN(c1ccc(Cl)cc1)c1ccc(C(=O)c2ccc(-c3ccccc3OC(F)(F)F)c(C(=O)O)c2)nc1 [21:6, 4-{5-[(4-chlorophenyl)(methyl)amino]picolinoyl}-2′-trifluoromethoxy-biphenyl-2-carboxylic acid]	217 nM
COc1ccc(CNc2ccc(C(=O)c3ccc(N(C)c4ccc(Cl)cc4)cn3)cc2C(=O)O)cc1 [2:6, 5-{5-[(4-Chlorophenyl)(methyl)amino]picolinoyl}-2-(4-methoxybenzylamino)benzoic acid]	151 nM
C#CCN(c1ccc(Cl)cc1)c1ccc(C(=O)c2ccc(Oc3ccccc3)c(C(=O)O)c2)nc1 [1:9, 5-{5-[(4-Chlorophenyl)(2-propynyl)amino]picolinoyl}-2-phenoxybenzoic acid]	48 nM
O=C(c1ccc(Oc2ccccc2Oc2ccccc2)c(C(=O)O)c1)c1ccc(N(CC2CC2)c2ccc(Cl)cc2)cn1 [1:40, 5-{5-[(4-Chlorophenyl)(cyclopropylmethyl)amino]picolinoyl}-2-(2-phenoxyphenoxy)benzoic acid]	66 nM
CN(c1ccc(Cl)cc1)c1ccc(C(=O)c2ccc(-n3cccc3-c3cccc(Cl)c3)c(C(=O)O)c2)nc1 [20:1, 5-{5-[(4-Chlorophenyl)(methyl)amino]picolinoyl}-2-{2-(3-chlorophenyl)pyrrol-1-yl}benzoic acid]	163 nM
CN(c1ccc(Cl)cc1)c1ccc(C(=O)c2ccc(Oc3ccc(F)c(F)c3)c(C(=O)O)c2)cn1 [6:2]	630 nM
CN(c1ccc(Cl)cc1)c1ccc(C(=O)c2ccc(Oc3cccnc3)c(C(=O)O)c2)nc1 [1:24, 5-{5-[(4-Chlorophenyl)(methyl)amino]picolinoyl}-2-(3-pyridyloxy)benzoic acid]	1140 nM
COc1cc(OC)cc(C(=O)Nc2ccc(C(=O)c3ccc(N(C)c4ccc(Cl)cc4)cn3)cc2C(=O)O)c1 [3:29, 5-{5-[(4-Chlorophenyl)(methyl)amino]picolinoyl}-2-(3,5-dimethoxybenzamido)-benzoic acid]	12 nM
CN(c1ccc(Cl)cc1)c1ccc(C(=O)c2ccc(-c3ccccc3-c3ccccc3)c(C(=O)O)c2)nc1 [21:8, 4-{5-[(4-Chlorophenyl)(methyl)amino]picolinoyl}[1,1′;2′,1″]terphenyl-2-carboxylic acid]	244 nM
O=C(c1ccc(Oc2ccccc2O)c(C(=O)O)c1)c1ccc(N(CC2CC2)c2ccc(Cl)cc2)cn1 [1:28, 5-{5-[(4-Chlorophenyl)(cyclopropylmethyl)amino]picolinoyl}-2-(2-hydroxyphenoxy)benzoic acid]	44 nM
COc1ccccc1Nc1ccc(C(=O)c2ccc(N(C)c3ccc(Cl)cc3)cn2)cc1C(=O)O [2:14, 5-{5-[(4-Chlorophenyl)(methyl)amino]picolinoyl}-2-(2-methoxyphenylamino)benzoic acid]	68 nM
CN(c1ccc(Cl)cc1)c1ccc(C(=O)c2ccc(NC(=O)c3cccc4c3OCO4)c(C(=O)O)c2)nc1 [3:28, 5-{5-[(4-Chlorophenyl)(methyl)amino]picolinoyl}-2-(2,3-methylenedioxy-benzamido)benzoic acid]	50 nM
O=C(c1ccc(Oc2ccccc2Oc2ccccc2F)c(C(=O)O)c1)c1ccc(N(CC2CC2)c2ccc(Cl)cc2)cn1 [1:46, 5-{5-[(4-Chlorophenyl)(cyclopropylmethyl)amino]picolinoyl}-2-[2-(2-fluorophenoxy)phenoxy]benzoic acid]	40 nM
CN(c1ccc(Cl)cc1)c1ccc(C(=O)c2ccc(C(=O)c3cccc(C(F)(F)F)c3)c(C(=O)O)c2)nc1 [5:27]	54 nM
O=C(c1ccc(N(CC2CC2)c2ccc(Cl)cc2)cc1)c1cc(C(=O)O)c(Oc2ccccc2)cn1 [8:1, 2-{4-[(4-Chlorophenyl)(cyclopropylmethyl)amino]benzoyl}-5-phenoxyisonicotinic acid]	82 nM
CN(c1ccc(Cl)cc1)c1ccc(C(=O)c2ccc(-c3cccc(-c4ccccc4)c3)c(C(=O)O)c2)nc1 [21:9, 4-{5-[(4-Chlorophenyl)(methyl)amino]picolinoyl}[1,1′;2′,1″]terphenyl-2-carboxylic acid[1,1′;3′,1″]terphenyl-2-carboxylic acid]	511 nM
O=C(c1ccc(Oc2ccccc2)c(C(=O)O)c1)c1ccc(-c2ccc(Cl)cc2)cn1 [7:2, 5-[5-(4-Chlorophenyl)picolinoyl]-2-phenoxybenzoic acid]	752 nM
COc1c(F)c(F)cc(C(=O)Nc2ccc(C(=O)c3ccc(N(C)c4ccc(Cl)cc4)cn3)cc2C(=O)O)c1F [3:31, 5-{5-[(4-Chlorophenyl)(methyl)amino]picolinoyl}-2-(2,4,5-trifluoro-3-methoxy-benzamido)benzoic acid]	61 nM
COc1ccc(C(=O)Nc2ccc(C(=O)c3ccc(N(CC4CC4)c4ccc(Cl)cc4)cn3)cc2C(=O)O)cc1 [3:7, 5-{5-[(4-Chlorophenyl)(cyclopropylmethyl)amino]picolinoyl}-2-(4-methoxy-benzamido)benzoic acid]	31 nM
CN(c1ccc(Cl)cc1)c1ccc(C(=O)c2ccc(OCc3ccc(Cl)cc3)c(C(=O)O)c2)nc1 [12:3, 2-(4-Chlorobenzyloxy)-5-{5-[(4-chlorophenyl)(methyl)amino]picolinoyl}benzoic acid]	364 nM
COc1cccc(F)c1C(=O)Nc1ccc(C(=O)c2ccc(N(C)c3ccc(Cl)cc3)cn2)cc1C(=O)O [3:30, 5-{5-[(4-Chlorophenyl)(methyl)amino]picolinoyl}-2-(2-fluoro-6-methoxybenz-amido)benzoic acid]	26 nM
COc1ccccc1C(=O)Nc1ccc(C(=O)c2ccc(N(CC3CC3)c3ccc(Cl)cc3)cn2)cc1C(=O)O [3:8, 5-{5-[(4-Chlorophenyl)(cyclopropylmethyl)amino]picolinoyl}-2-(2-methoxy-benzamido)benzoic acid]	40 nM
CN(c1ccc(Cl)cc1)c1ccc(C(=O)c2ccc(C(=O)c3ccc4c(c3)OCO4)c(C(=O)O)c2)nc1 [5:24, 5-{5-[(4-Chlorophenyl)(methyl)amino]picolinoyl}-2-(3,4-methylenedioxy-benzoyl)benzoic acid]	77 nM
CN(c1ccc(Cl)cc1)c1ccc(C(=O)c2ccc(NC(=O)c3ccc(S(=O)(=O)N(C)C)cc3)c(C(=O)O)c2)nc1 [3:15, 5-{5-[(4-Chlorophenyl)(methyl)amino]picolinoyl}-2-(4-dimethylsulfamoyl-benzamido)benzoic acid]	41 nM
CCCCCCC(=O)c1ccc(C(=O)c2ccc(N(C)c3ccc(Cl)cc3)cn2)cc1C(=O)O [5:17, 5-{5-[(4-Chlorophenyl)(methyl)amino]picolinoyl}-2-heptanoylbenzoic acid]	90 nM
COc1ccc(C(=O)Nc2ccc(C(=O)c3ccc(N(C)c4ccc(Cl)cc4)cn3)cc2C(=O)O)cc1OC [3:26, 5-{5-[(4-Chlorophenyl)(methyl)amino]picolinoyl}-2-(3,4-dimethoxybenzamido)-benzoic acid]	37 nM

same assay, conditions: 5 min; total concentration of title compound in the assay 10 μM

Compound	inhibition at 10 µM
C#CCN(c1ccc(Cl)cc1)c1ccc(C(=O)c2ccc(Oc3ccccc3)c(C(=O)O)c2)nc1 [1:9, 5-{5-[(4-Chlorophenyl)(2-propynyl)amino]picolinoyl}-2-phenoxybenzoic acid]	99%
CN(c1ccc(Cl)cc1)c1ccc(C(=O)c2ccc(Oc3ccc(F)c(F)c3)c(C(=O)O)c2)cn1 [6:2]	96%
CN(c1ccc(Cl)cc1)c1ccc(C(=O)c2ccc(Oc3cccnc3)c(C(=O)O)c2)nc1 [1:24, 5-{5-[(4-Chlorophenyl)(methyl)amino]picolinoyl}-2-(3-pyridyloxy)benzoic acid]	86%
O=C(c1ccc(N(CC2CC2)c2ccc(Cl)cc2)cc1)c1cc(C(=O)O)c(Oc2ccccc2)cn1 [8:1, 2-{4-[(4-Chlorophenyl)(cyclopropylmethyl)amino]benzoyl}-5-phenoxyisonicotinic acid]	99%
